Test results taken from US10654834B2 (Venenum Biodesign, LLC, priority 2016, dated 2020).

Key:
mouse TGR5 receptor = molecular target: T1, mouse TGR5 receptor (Mus musculus, UniProt Q80SS6); assay: Mouse TGR5 HTRF cAMP production assay (HEK293-EBNA cells, Cisbio cAMP HiRange kit); type: cell-based; conditions: HEK293-EBNA cells overexpressing mouse TGR5, HTRF cAMP assay
T1 construct: host or cells: HEK293-EBNA (293 c18, ATCC CRL10852)
T1 sequence (Q80SS6 1-329): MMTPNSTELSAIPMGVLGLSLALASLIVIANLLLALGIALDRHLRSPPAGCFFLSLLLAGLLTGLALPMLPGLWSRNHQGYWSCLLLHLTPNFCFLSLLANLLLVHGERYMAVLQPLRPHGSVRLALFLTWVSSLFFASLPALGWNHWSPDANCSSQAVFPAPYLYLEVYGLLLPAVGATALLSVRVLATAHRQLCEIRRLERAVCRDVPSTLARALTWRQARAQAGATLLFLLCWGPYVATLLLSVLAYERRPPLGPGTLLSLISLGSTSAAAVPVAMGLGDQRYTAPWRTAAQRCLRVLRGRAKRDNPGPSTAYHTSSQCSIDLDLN
Procedure: Mouse TGR5 cAMP Production Assay
Compounds of the present invention were evaluated for their ability to induce cAMP production in HEK-EBNA cells overexpressing the mouse TGR5 receptor. Human embryonic kidney cells (HEK293-EBNA) stably expressing mouse TGR5 receptor were established using the following procedure. Specifically, a commercially obtained gene encoding mouse TGR5 (accession number BC116914) from Thermo Scientific (Waltham, Mass.) was cloned into an episomal expression vector. The resulting expression plasmid was then transfected into 293 c18 (ATCC® CRL10852™) cells, which express the Epstein-Barr virus nuclear antigen EBNA1 and can support the replication of episomal vectors. Selection for the plasmid was maintained with Hygromycin B. Cells were cultured and maintained in DMEM (Sigma; cat #6429) supplemented with 10% Fetal Bovine Serum, 1% penicillin/streptomycin, 2 mM L-alanine L-glutamine (GlutaMax), and 250 μg/mL Hygromycin.
We developed two cAMP production assays.
(ii) HTRF cAMP Production Assay
In this second cAMP production assay, the cAMP production was measured in 384-well low volume plates (Greiner; cat #784075) using the Cisbio™ cAMP HiRange HTRF Assay Kit (CisBio) according to the manufacturer's protocol.
Briefly, compounds were initially diluted in 100% DMSO (12-point serial dilution by half logs) in a 96-well plate and then were further diluted 1:50 in PBS containing 10 mM HEPES. 5 μL were transferred to the 384-well assay plate in duplicate. HEK293-EBNA cells stably overexpressing mouse TGR5 were harvested using non-enzymatic cell dissociation buffer (Sigma), spun down, then resuspended in serum-free DMEM with 500 μM IBMX at a density of 500,000 cells/mL. 5 μL of cell suspension was transferred to each well of the 384-well assay plate already containing compound. The plate was covered and incubated at room temperature for 1 hour. The d2-cAMP and anti-cAMP Ab-cryptate stock solutions were prepared as per kit instructions. Then 5 μL of each conjugate (d2 and cryptate) were added to each well of the assay plate. The plate was covered and incubated at room temperature for one (1) hour. The plate was read on an Envision™ plate reader (PerkinElmer).
(§1) In Table 52, EC50 values for both human and mouse cells were determined according to the TGR5 cAMP assays described above. […]

human TGR5 receptor = molecular target: T2, human TGR5 receptor (Homo sapiens, UniProt Q8TDU6); assay: Human TGR5 cAMP production assay (hTGR5-CHO cells, DiscoveRx cAMP XS+ kit); type: cell-based; conditions: luminescent cAMP assay, read-out: Human TGR5 Lum. cAMP Activity (EC50)
T2 construct: host or cells: CHO-K1 (hTGR5-CHO)
T2 sequence (Q8TDU6 1-330): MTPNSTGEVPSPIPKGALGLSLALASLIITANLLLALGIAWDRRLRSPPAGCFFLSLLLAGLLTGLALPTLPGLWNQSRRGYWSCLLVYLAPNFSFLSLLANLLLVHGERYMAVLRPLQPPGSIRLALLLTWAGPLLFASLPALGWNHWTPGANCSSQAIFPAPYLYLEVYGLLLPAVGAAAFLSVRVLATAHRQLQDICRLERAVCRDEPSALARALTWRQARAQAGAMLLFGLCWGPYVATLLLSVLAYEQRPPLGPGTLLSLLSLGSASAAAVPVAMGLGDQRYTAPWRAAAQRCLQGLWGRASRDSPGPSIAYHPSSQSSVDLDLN
Procedure: Human TGR5 cAMP Production Assay
Compounds of the present invention were evaluated for their ability to induce cAMP production using CHO-K1 cells overexpressing the human TGR5 receptor.
CHO-K1 cells stably expressing human TGR5 receptor (accession number NM_001077194.1) (hTGR5) (i.e., hTGR5-CHO cells) were purchased from DiscoveRx Corporation (Fremont, Calif.). hTGR5-CHO cells were grown in Ham's F-12 media supplemented with 10% Fetal Bovine Serum, 1% Penicillin-Streptomycin, 2 mM L-Alanine L-Glutamine (Glutamax), and 800 μg/mL Geneticin selection. The cAMP production assay was performed using DiscoveRx's cAMP XS+ kit (Catalog No. 90-0075XL) following the manufacturer's recommended protocol. Briefly, hTGR5-CHO cells were harvested using non-enzymatic cell dissociation buffer (Sigma-Aldrich, St. Louis, Mo.) and 1×10^6 cells were combined in Phosphate-Buffered Saline (PBS) to a final volume of 496 μL to which 4 μL of 125 mM IBMX (Sigma-Aldrich, St. Louis, Mo.) was added. 500 μL of cAMP antibody solution was added to the harvested cells and incubated at room temperature for 20 min.
Test compounds were serially diluted (half-log dilutions) in DMSO and then further diluted 1:50 in PBS, 10 mM HEPES buffer. 2 μL of serially diluted compound was added to a 384-well low volume plate (Greiner; cat #784075) and centrifuged briefly. 2 μl of the cell/cAMP antibody mixture was then added to each compound-containing well and allowed to incubate at room temperature for one hour. Following incubation, the XS+ kits' ED/Lysis/CL Substrate Working Solution was prepared following the manufacturer's recommended protocol and 4 μL was added to each well of the plate. The plate was then incubated for one hour at room temperature. Following incubation, 4 μL of Enzyme Acceptor reagent was added to the plate and allowed to incubate overnight at room temperature. Luminescent signal was then detected using the Viewlux instrument (Perkin-Elmer, Waltham, Mass.).
Human and Mouse TGR5 cAMP
as §1

Structure (SMILES)	EC50 (mouse TGR5 receptor) [nM]	EC50 (human TGR5 receptor) [nM]
N#Cc1ccc(CCNC(=O)[C@@H]2CCCN2c2cc(-c3ccc(CNC(=O)NCCCS(=O)(=O)O)cc3)nc(C(F)(F)F)n2)cc1 [Compound 193, (S)-3-(3-(4-(6-(2-((4-cyanophenethyl)carbamoyl)pyrrolidin-1-yl)-2-(trifluoromethyl)pyrimidin-4-yl)benzyl)ureido)propane-1-sulfonic acid]	< 100	100 to 999
CN(C)CCC1CCN(c2cc(N3CCC[C@H]3C(=O)NCCc3ccc(C#N)cc3)nc(C(F)(F)F)n2)CC1 [Compound 21]	100 to 999	< 100
N=C(N)NCCCC1CCN(c2cc(N3CCC[C@H]3C(=O)NCCc3ccc(C(F)(F)F)cc3)nc(C(F)(F)F)n2)CC1 [Compound 132, (S)-1-(6-(4-(3-guanidinopropyl)piperidin-1-yl)-2-(trifluoromethyl)pyrimidin-4-yl)-N-(4-(trifluoromethyl)phenethyl)-pyrrolidine-2-carboxamide]	< 100	< 100
O=C(CCCC1CCN(c2cc(N3CCC[C@H]3C(=O)NCCc3ccccc3)nc(C(F)(F)F)n2)CC1)NCS(=O)(=O)O [Compound 365, (S)-(4-(1-(6-(2-(phenethylcarbamoyl)pyrrolidin-1-yl)-2-(trifluoromethyl)pyrimidin-4-yl)piperidin-4-yl)butanamido)methanesulfonic acid]	100 to 999	100 to 999
N#Cc1ccc(CCNC(=O)[C@@H]2CCCN2c2cc(-c3ccc(CCN)cc3)nc(C(F)(F)F)n2)cc1 [Compound 184, (S)-1-(6-(4-(2-aminoethyl)phenyl)-2-(trifluoromethyl)pyrimidin-4-yl)-N-(4-cyanophenethyl)pyrrolidine-2-carboxamide]	100 to 999	100 to 999
N#Cc1ccc(CCNC(=O)[C@@H]2CCCN2c2cc(-c3ccc(COCC(=O)NCS(=O)(=O)O)cc3)cc(C(F)(F)F)n2)cc1 [Compound 209, (S)-(2-((4-(2-(2-((4-cyanophenethyl)carbamoyl)pyrrolidin-1-yl)-6-(trifluoromethyl)pyridin-4-yl)benzyl)oxy)acetamido)methanesulfonic acid]	< 100	< 100
N#CCCN1CCN(c2cc(N3CCC[C@@H](C(=O)NCCc4ccc(C#N)cc4)C3)nc(C(F)(F)F)n2)CC1 [Compound 316, (R)-1-(6-(4-(2-cyanoethyl)piperazin-1-yl)-2-(trifluoromethyl)pyrimidin-4-yl)-N-(4-cyanophenethyl)piperidine-3-carboxamide]	< 100	< 100
N#Cc1ccc(CCNC(=O)[C@@H]2CCN2c2cc(N3CCC(CCCC(=O)NCCO)CC3)nc(C(F)(F)F)n2)cc1 [Compound 361, (S)-N-(4-cyanophenethyl)-1-(6-(4-(4-((2-hydroxyethyl)amino)-4-oxobutyl)piperidin-1-yl)-2-(trifluoromethyl)pyrimidin-4-yl)azetidine-2-carboxamide]	< 100	< 100

The next lines start with the values.

EC50 (mouse TGR5 receptor) [nM]	EC50 (human TGR5 receptor) [nM]	Structure (SMILES)
< 100	< 100	N#Cc1ccc(CCNC(=O)[C@@H]2CCCN2c2cc(N3CCC(CCCC(=O)NCCN)CC3)nc(C(F)(F)F)n2)cc1 [Compound 92, (S)-1-(6-(4-(4-((2-aminoethyl)amino)-4-oxobutyl)piperidin-1-yl)-2-(trifluoromethyl)pyrimidin-4-yl)-N-(4-cyanophenethyl)pyrrolidine-2-carboxamide]
< 100	100 to 999	N#Cc1ccc(CCNC(=O)[C@@H]2CCCN(c3cc(N4CCN(CCOCCO)CC4)nc(C(F)(F)F)n3)C2)cc1 [Compound 314, (R)-N-(4-cyanophenethyl)-1-(6-(4-(2-(2-hydroxyethoxy)ethyl)piperazin-1-yl)-2-(trifluoromethyl)pyrimidin-4-yl)piperidine-3-carboxamide]
< 100	< 100	O=C(CCCC1CCN(c2cc(N3CCC[C@H]3C(=O)NCCc3ccc(-c4ccncc4)cc3)nc(C(F)(F)F)n2)CC1)NCS(=O)(=O)O [Compound 353, (S)-(4-(1-(6-(2-((4-(pyridin-4-yl)phenethyl)carbamoyl)pyrrolidin-1-yl)-2-(trifluoromethyl)pyrimidin-4-yl)piperidin-4-yl)butanamido)methanesulfonic acid]
< 100	100 to 999	N=C(N)N1CCC(CCCC2CCN(c3cc(N4CC[C@H]4C(=O)NCCc4ccc(C(F)(F)F)cc4)nc(C(F)(F)F)n3)CC2)CC1 [Compound 288, (S)-1-(6-(4-(3-(1-carbamimidoylpiperidin-4-yl)propyl)piperidin-1-yl)-2-(trifluoromethyl)pyrimidin-4-yl)-N-(4-(trifluoromethyl)phenethyl)-azetidine-2-carboxamide]
< 100	100 to 999	O=C(NCCc1ccc(C(F)(F)F)cc1)[C@@H]1CCCN(c2cc(N3CCN(C(=O)CO)CC3)nc(C(F)(F)F)n2)C1 [Compound 348, (R)-1-(6-(4-(2-hydroxyacetyl)piperazin-1-yl)-2-(trifluoromethyl)pyrimidin-4-yl)-N-(4-(trifluoromethyl)phenethyl)piperidine-3-carboxamide]
< 100	100 to 999	N#Cc1ccc(CCNC(=O)[C@@H]2CCCN2c2cc(-c3ccc(CCNC(=O)NCCCS(=O)(=O)O)cc3)nc(C(F)(F)F)n2)cc1 [Compound 195, (S)-3-(3-(4-(6-(2-((4-cyanophenethyl)carbamoyl)pyrrolidin-1-yl)-2-(trifluoromethyl)pyrimidin-4-yl)phenethyl)ureido)propane-1-sulfonic acid]
< 100	< 100	N#Cc1ccc(CCNC(=O)[C@@H]2CCN2c2cc(N3CCC(CCN)CC3)nc(C(F)(F)F)n2)cc1 [Compound 246, (S)-1-(6-(4-(2-aminoethyl)piperidin-1-yl)-2-(trifluoromethyl)pyrimidin-4-yl)-N-(4-cyanophenethyl)azetidine-2-carboxamide]
